Literature values as cited in patent publication US4076804A, “Erythromycin therapy” (Abbott Laboratories, priority 1976, dated 1978).

Settings: general statement, no test described

**Q.** With `CCOC(=O)CCC(=O)O[C@H]1[C@H](O[C@@H]2[C@@H](C)[C@H](O[C@H]3C[C@@](C)(OC)[C@@H](O)[C@H](C)O3)[C@@H](C)C(=O)O[C@H](CC)[C@@](C)(O)[C@H](O)[C@@H](C)C(=O)[C@H](C)C[C@@]2(C)O)O[C@H](C)C[C@@H]1N(C)C` [EES, erythromycin ethyl succinate] as the compound, how does the toxicity read?
**A.** Its toxicity is “very low toxicity”.
